Assays:
[1] = test system: SF-268; test: In vitro inhibition of tumor cell growth of SF-268, CNS tumor cell line; format: functional; conditions: Homo sapiens
[2] = test system: HCT-116; test: In vitro inhibition of tumor cell growth of HCT116, colon cancer cell line; format: functional; conditions: Homo sapiens
[3] = test system: SF-295; test: In vitro inhibition of tumor cell growth of SF-295, CNS tumor cell line; format: functional; conditions: Homo sapiens
[4] = test system: DMS-114; test: In vitro inhibition of tumor cell growth of DMS114, a small-cell lung cancer cell line; conditions: Homo sapiens
[5] = test system: NCI-H226; test: In vitro inhibition of tumor cell growth of NCI-H226, a non small-cell lung cancer cell line; format: functional; conditions: Homo sapiens
[6] = test system: KM-20L2; test: In vitro inhibition of tumor cell growth of KM20L2, colon cancer cell line; format: functional; conditions: Homo sapiens
[7] = test system: OVCAR-3; test: In vitro inhibition of tumor cell growth of OVCAR-3, ovarian cancer cell line; format: functional; conditions: Homo sapiens
[8] = molecular target: Tubulin beta chain (Bos taurus, UniProt Q6B856); test: Inhibition of tubulin polymerization; format: functional
Tubulin beta chain, sequence (Q6B856 whole entry): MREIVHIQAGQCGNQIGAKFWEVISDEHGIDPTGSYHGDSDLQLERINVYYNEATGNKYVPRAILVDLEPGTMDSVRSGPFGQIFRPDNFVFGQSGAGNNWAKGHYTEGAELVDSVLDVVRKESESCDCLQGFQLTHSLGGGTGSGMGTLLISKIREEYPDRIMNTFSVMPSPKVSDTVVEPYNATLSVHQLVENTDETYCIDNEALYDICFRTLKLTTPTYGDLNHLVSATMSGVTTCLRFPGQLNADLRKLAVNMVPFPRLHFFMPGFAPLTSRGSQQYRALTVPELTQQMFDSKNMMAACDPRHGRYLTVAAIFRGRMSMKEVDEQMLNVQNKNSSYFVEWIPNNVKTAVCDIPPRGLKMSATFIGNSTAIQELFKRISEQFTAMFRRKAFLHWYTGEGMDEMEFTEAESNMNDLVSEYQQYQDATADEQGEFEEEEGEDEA

[9] = test system: RXF 393; test: In vitro inhibition of tumor cell growth of RXF-393, renal cancer cell line; format: functional; conditions: Homo sapiens
[10] = test system: SK-MEL-5; test: In vitro inhibition of tumor cell growth of SK-Mel-5, melanoma cell line; format: functional; conditions: Homo sapiens

Row | Structure (SMILES) | GI50 [2] | GI50 [4] | GI50 [5] | GI50 [7] | IC50 [8] | GI50 [10] | GI50 [1] | GI50 [3] | GI50 [6] | GI50 [9]
1 | Oc1cc(-c2ccccc2)nc2cc3c(cc12)OCO3 | 0.0708 µM | – | 0.316 µM | 0.162 µM | 0.63 µM | 0.0355 µM | 0.0302 µM | 0.191 µM | 0.182 µM | 0.112 µM
2 | CN(C)c1ccc(-c2cc(O)c3ccccc3n2)cc1 | > 100 µM | > 100 µM | > 100 µM | > 100 µM | > 40 µM | – | > 100 µM | > 100 µM | > 100 µM | > 100 µM
3 | COc1ccc2c(c1)CCc1c-2nc2cc3c(cc2c1O)OCO3 | > 100 µM | – | > 100 µM | > 100 µM | – | > 100 µM | > 100 µM | > 100 µM | > 100 µM | > 100 µM
4 | Oc1cc(-c2cccs2)nc2cc3c(cc12)OCO3 | 4.79 µM | 6.76 µM | 6.31 µM | 7.94 µM | 2.2 µM | 1.35 µM | 11.2 µM | 3.24 µM | 14.5 µM | 2.04 µM
5 | COc1ccc(CCc2cc(OC)c(OC)c(OC)c2)cc1O | – | – | – | – | 0.63 µM | – | – | – | – | –
6 | Oc1cc(/C=C/c2ccccc2)nc2cc3c(cc12)OCO3 | 2.82 µM | – | 2.88 µM | 2.24 µM | 2.3 µM | 2.19 µM | 7.08 µM | 3.02 µM | – | 4.27 µM
7 | COc1ccc(-c2cc(O)c3cc4c(cc3n2)OCO4)cc1OC | > 100 µM | > 100 µM | > 100 µM | > 100 µM | > 40 µM | > 100 µM | > 100 µM | > 100 µM | > 100 µM | > 100 µM
8 | Oc1c2c(nc3cc4c(cc13)OCO4)-c1ccccc1CCC2 | 28.2 µM | – | > 100 µM | > 100 µM | > 40 µM | > 100 µM | > 100 µM | 19.5 µM | – | > 100 µM
9 | COc1ccc(-c2cc(O)c3cc(Cl)ccc3n2)cc1 | > 100 µM | > 100 µM | > 100 µM | > 100 µM | > 40 µM | > 100 µM | > 100 µM | > 100 µM | > 100 µM | > 100 µM

Continued, in another order:

Row | GI50 [2] | GI50 [4] | GI50 [5] | GI50 [7] | IC50 [8] | GI50 [10] | Structure (SMILES) | GI50 [1] | GI50 [3] | GI50 [6] | GI50 [9]
10 | 0.372 µM | 0.407 µM | 0.316 µM | 0.245 µM | 0.7 µM | 0.195 µM | CN(C)c1cccc(-c2cc(O)c3cc4c(cc3n2)OCO4)c1 | 0.741 µM | 0.24 µM | 0.229 µM | 0.24 µM
11 | 43.7 µM | 52.5 µM | > 100 µM | – | > 40 µM | 44.7 µM | Oc1cc(-c2ccccn2)nc2cc(F)ccc12 | 29.5 µM | > 100 µM | > 100 µM | –
12 | > 100 µM | > 100 µM | – | > 100 µM | > 40 µM | > 100 µM | Oc1cc(-c2ccc(Oc3ccccc3)cc2)nc2cc3c(cc12)OCO3 | > 100 µM | > 100 µM | > 100 µM | > 100 µM
13 | > 100 µM | > 100 µM | > 100 µM | > 100 µM | > 40 µM | > 100 µM | COc1ccc(-c2cc(O)c3cc(OC)ccc3n2)cc1 | 36.3 µM | – | > 100 µM | > 100 µM
14 | > 100 µM | > 100 µM | 28.8 µM | > 100 µM | > 40 µM | > 100 µM | COc1ccc(-c2cc(O)c3cc4c(cc3n2)OCO4)cc1 | > 100 µM | > 100 µM | > 100 µM | 38 µM
15 | 38 µM | 24 µM | 39.8 µM | 19.5 µM | 1.1 µM | 25.1 µM | Oc1cc(-c2ccc3c(c2)OCO3)nc2cc3c(cc12)OCO3 | 46.8 µM | 29.5 µM | 26.3 µM | 20.9 µM
16 | 29.5 µM | 32.4 µM | 35.5 µM | 30.9 µM | 18 µM | 7.76 µM | Oc1cc(-c2ccc[nH]2)nc2cc3c(cc12)OCO3 | > 100 µM | 33.9 µM | 20 µM | 15.8 µM
17 | > 100 µM | > 100 µM | > 100 µM | > 100 µM | > 40 µM | > 100 µM | COc1ccc(-c2cc(O)c3ccc(F)cc3n2)cc1 | > 100 µM | > 100 µM | > 100 µM | > 100 µM
18 | 3.24 µM | 5.01 µM | 6.31 µM | 4.9 µM | 5.5 µM | 4.07 µM | COc1ccc(OC)c(-c2cc(O)c3cc4c(cc3n2)OCO4)c1 | 8.32 µM | 6.61 µM | 6.92 µM | 3.02 µM

— ChEMBL document CHEMBL1127817, “Antitumor agents. 150. 2',3',4',5',5,6,7-substituted 2-phenyl-4-quinolones and related compounds: their synthesis, cytotoxicity, and inhibition of tubulin polymerization” (J Med Chem, 1994)
